The target in data set [1] is T1, recombinant human MMP-9 monomers (Homo sapiens, UniProt P14780).
T1 construct: made in house; host or cells: Sf9 insect cells
In words: Gelatin degradation assay, recombinant MMP-9 monomers. It is filed as biochemical. The settings on record: recombinant human MMP-9 (Sf9) mono. How it is done:
(§1) Compounds 5 and 7 were synthesized as previously reported. Full-length human proMMP-9 was produced by recombinant expression in Sf9 insect cells and purified by gelatin-Sepharose chromatography as previously described. Stable full-length proMMP-9 monomers and trimers were separated by glycerol gradient ultracentrifugation as previously described. ProMMP-9 mixture and the separated monomers and trimers were activated by incubation with the catalytic domain of MMP-3 (cat. No. 444217, Merck Millipore, Darmstadt, Germany) as previously described. Activation of proMMP-9 was confirmed by a band shift of ±10 kDa, corresponding to the removal of the auto-inhibitory propeptide domain and by detection of gelatinolytic activity with a previously described gelatin degradation assay. MMP-9 monomers and trimers purified from human neutrophils were purchased (Cat. No. 444,231 and 444232, Sigma-Aldrich, St. Louis, MO, USA). Examples of sample purities and activations can be found in Supplementary Figure S1. Recombinant human proMMP-2 (CHO cell-derived), proMMP-3 (NS0 cell-derived), proMMP-7 (NS0 cell-derived) and proMMP-8 (NS0 cell-derived) were purchased from R & D systems (Minneapolis, MN, USA), dissolved in assay buffer (150 mM NaCl, 5 mM CaCl2, 0.01% Tween-20, 50 mM Tris, pH 7.4) to a concentration of 100 µg/mL and activated by incubation with 1 mM p-aminophenylmercuric acetate for, respectively, 1h, 6h, 2h and 1h. Activation of MMPs was confirmed by a band shift of approximately 10 kDa, corresponding to the removal of the propeptide domain. MMP-14/MT1-MMP (NS0 cell-derived) was also purchased from R & D systems (Minneapolis, MN, USA) and activated by incubation with recombinant human furin (cat. No. 1503-SE-010, R & D systems, Minneapolis, MO, USA) in activation buffer (50 mM Tris, 1 mM CaCl2, 0.5% Brij-35, pH 9) for 1.5 h and activity was tested in assay buffer (50 mM Tris, 3 mM CaCl2, 1 µM ZnCl2, pH 8.5). Active human neutrophil elastase (NE) was purchased from Abcam (Cambridge, UK) and for activity assays of NE the assay buffer was replaced by 200 mM Tris, pH 8.8. ADAM17/TACE (Sf 21 (baculovirus)-derived, R & D systems, Minneapolis, MO, USA) was diluted and evaluated in 25 mM Tris, 2.5 μM ZnCl2, 0.005% Brij-35, pH 9.0. All stocks of the compounds were evaluated for the presence of endotoxin using the EndoZyme II assay (Hyglos bioMérieux, Bernried am Starnberger See, Germany). Endotoxin levels in all concentrated stocks (2.5 mg/mL) were below the accepted limit of 0.5 EU/mL.
(§2) To determine the inhibition of gelatinolytic activity, we used a previously optimized gelatin degradation assay. Activated MMP-9, activated MMP-2, neutrophil elastase or supernatants of stimulated neutrophils, were incubated with different concentrations of inhibitors and incubated for 30 min at 37 °C. Next, dye-quenched gelatin (DQ™-gelatin, Invitrogen, Carlsbad, CA, USA) was added at a final concentration of 2.5 µg/mL and the increase in fluorescence over time was measured with the CLARIOstar microplate reader (BMG Labtech, Ortenberg, Germany). For other MMPs, the OmniMMP substrate peptide (Mca-PLGL-Dpa-AR-NH2, cat. no. BML-P126-0001, Enzo Life Sciences, Farmingdale, NY, USA) was used at a final concentration of 2.5 µg/mL. For ADAM17 the fluorogenic peptide Mca-PLAQAV-Dpa-RSSSR-NH2 (ES003, R & D systems, Minneapolis, MO, USA) and for neutrophil elastase the fluorogenic substrate MeOSuc-AAPV-AMC (cat. no. 324740, Merck Millipore, Darmstadt, Germany) were used. Proteolytic activity was determined by linear regression of the fluorescence curve and the percentage inhibition was calculated through comparison with the positive control (no inhibitors). When testing supernatants from human neutrophils, the assay was performed in the presence of 20 µM neutrophil elastase inhibitor (Elastase Inhibitor IV, Calbiochem, Darmstadt, Germany).

For data set [2], the target named is T2, recombinant human MMP-9 trimers (Homo sapiens, UniProt P14780).
T2 construct: made in house; host or cells: Sf9 insect cells
As to the kind of experiment: Fluorogenic peptide (OmniMMP) degradation assay, recombinant MMP-9 trimers. It is filed as biochemical. The settings on record: recombinant human MMP-9 (Sf9) tri. How it is done: as §1, §2

The target of data set [3] is T3, human neutrophil-derived MMP-9 trimers (Homo sapiens, UniProt P14780).
T3 construct: purchased Sigma-Aldrich 444232; host or cells: human neutrophils (natural protein)
In words: Gelatin degradation assay, neutrophil-derived MMP-9 trimers. It is filed as biochemical. As to conditions: for IC25 / IC50 / IC75: MMP-9 isolated from human neutrophils, tri, gelatin degradation. How it is done:
as §1, §2

The next data set relates to U-87 cell line. As to the kind of experiment: U-87 cell proliferation (confluence, Incucyte). The settings on record: up to a concentration of 20 µM; 17 h. The class given is cell-based. As to the method: Toxicity of compounds 5 and 7 was evaluated in vitro on the U-87 cell line. Briefly, U-87 cells were seeded in 96-well plates (cat. No. 92096, TPP Techno Plastic Products, Trasadingen, Switzerland) at 2000 cells/well in DMEM FluoroBrite containing 10% FBS and incubated for 24 h. Cells were washed and further grown in DMEM FluoroBrite with 5% KnockOut™ Serum Replacement (Gibco, Waltham, MA, USA). Compounds 5 and 7 were added to the wells in a 1:2 dilution series starting at 20 µM and ending at 0.16 µM. To evaluate the effect of the compound on cell growth, confluence was determined every hour for 17h using the Incucyte® S3 Live-Cell Analysis System (Sartorius, Göttingen, Germany). Next, cells were stained with the LIVE/DEAD™ Viability/Cytotoxicity Kit for mammalian cells (Invitrogen, Carlsbad, CA, USA; cat. # L3224) and cell viability was evaluated. Data were normalized to the mean confluence of wells containing no inhibitors. To measure the stability of the compounds, fresh blood was collected from heathy mice by cardiac puncture with a heparin-coated needle and syringe and 30UI/mL heparin was added. Next, compound 5, compound 7 or vehicle (DMSO) was added to the blood at a final concentration of 500 µM and incubated at 37 °C. […] Background inhibition was subtracted and results were expressed as percentage inhibition.

Several values for one entry are separate records, joined by “and”; a condition that tells them apart may be missing. Identical values can stand only once.

T2 sequence (P14780 107-707 limits assumed): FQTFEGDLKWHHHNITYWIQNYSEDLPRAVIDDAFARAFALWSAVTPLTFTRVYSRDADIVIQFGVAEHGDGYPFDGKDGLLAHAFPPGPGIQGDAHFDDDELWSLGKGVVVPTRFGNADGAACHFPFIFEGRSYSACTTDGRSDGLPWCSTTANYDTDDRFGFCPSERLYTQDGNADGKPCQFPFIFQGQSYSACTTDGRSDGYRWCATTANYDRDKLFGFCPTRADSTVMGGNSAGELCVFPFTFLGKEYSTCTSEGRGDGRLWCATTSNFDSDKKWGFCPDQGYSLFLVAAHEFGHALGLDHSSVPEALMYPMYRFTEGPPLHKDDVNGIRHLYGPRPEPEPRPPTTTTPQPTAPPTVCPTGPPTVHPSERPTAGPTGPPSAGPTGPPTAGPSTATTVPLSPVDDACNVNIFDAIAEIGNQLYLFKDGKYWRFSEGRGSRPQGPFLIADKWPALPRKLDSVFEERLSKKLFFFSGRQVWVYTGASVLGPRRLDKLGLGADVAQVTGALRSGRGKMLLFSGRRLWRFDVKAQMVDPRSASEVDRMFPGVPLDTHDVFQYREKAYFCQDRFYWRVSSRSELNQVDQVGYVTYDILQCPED
T1 sequence (P14780 107-707 limits assumed): as above
T3 sequence (P14780 107-707 limits assumed): as above

The term IC25 denotes the concentration needed for an effect of 25%. By IC50 is commonly meant the concentration that inhibits the measured activity by half. One may read the IC75 as the concentration at which the effect reaches the 75% level. For the compound `CC(C)[C@H](C(=O)O)N(CCNC(=O)c1ccccc1)S(=O)(=O)c1ccc(-c2ccccc2)cc1` [Compound 5], in data set [1], the IC25 was found to be 392 nM, the IC50 is 1520 nM and the IC75 was 5.859 µM. Also, in data set [2], the IC25 came to 237 nM, the IC50 was found to be 724 nM and the IC75 is recorded as 2211 nM. Moreover, in data set [3], the 25% effect concentration (IC25) stood at 479 nM, the 50% inhibitory concentration (IC50) was 4220 nM and the 75% effect concentration (IC75) is 17.212 µM. Besides, the “effect on proliferation of U-87 cells” value in the data set with U-87 cell line was “did not reduce proliferation”.

As to `CC(C)[C@H](C(=O)O)N(CCNC(=O)c1cccc(C(=O)NCCN([C@@H](C(=O)O)C(C)C)S(=O)(=O)c2ccc(-c3ccccc3)cc2)c1)S(=O)(=O)c1ccc(-c2ccccc2)cc1` [Compound 7], the concentration for an effect of 25% (IC25) was found to be 48 nM in data set [1], 0.0017 nM in data set [2] and 0.008 nM in data set [3]. In addition, the concentration for half-maximal inhibition (IC50) was 191 nM in data set [1]; ~0.1 nM and 0.1 nM in data set [2]; 0.066 nM in data set [3]. Besides, the figures for the IC75 in data set [1], in data set [2] and in data set [3] were 0.754 µM, 6.0 nM and 0.0006 µM, respectively. Also, the “fold difference between monomeric and trimeric MMP-9” value in data set [3] (MMP-9 purified from human neutrophils, gelatin substrate) is listed as 650 fold. In addition, in the data set with U-87 cell line, the “effect on proliferation of U-87 cells” value is listed as “did not reduce proliferation”.

These data come from article PMC7408547, “Bivalent Inhibitor with Selectivity for Trimeric MMP-9 Amplifies Neutrophil Chemotaxis and Enables Functional Studies on MMP-9 Proteoforms” (Cells, 2020).
